Laboratory results: patent US4178442A, “Novel cinnamoyles piperazines and homopiperazines, the method of preparing them and their application in therapeutics” (Delalande S. A., priority 1977, dated 1979)
Where two headings read alike, the source gives them in different places.

What was measured:
anaesthetized dog = assay: Antiangorous activity on anaesthetized dog: consumption of oxygen in the left ventricule and cardiac effort (KATZ's index); assay type: in vivo; details: for inhibition in vivo at 2.4 mg/kg / inhibition in vivo at 2.3 mg/kg / inhibition in vivo at 2.5 mg/kg / inhibition in vivo at 0.6 mg/kg / inhibition in vivo at 0.12 mg/kg / inhibition in vivo at 1.25 mg/kg / inhibition in vivo at 0.625 mg/kg / inhibition in vivo at 5 mg/kg: Canis lupus familiaris, iv
Protocol: The antiangorous activity was tested on an anaesthetized dog (sodium pentobarbital 30 mg/kg/i.v.).
The consumption of oxygen in the left ventricule was estimated by the product of the coronary venous flow and the coronary arteriovenous difference in oxygen (% volume).
The coronary venous flow was measured at the coronary venous sinus by means of a modified Morawitz cannula, introduced under radioscopic control.
The cardiac effort was estimated according to KATZ's index, by the product of the average arterial pressure and the cardiac frequency.
The cardiac frequency was estimated from the electrocardiogram recorded with D2 derivation.
It should be noted that the compounds tested were injected intravenously with slow perfusion.

in vivo = details: iv; for mortality: read-out: Toxicity (Mortality); for LD50: read-out: Toxicity: LD50
Text: *LD50 or percentage of mortality which is given between brackets

[1] = 2.3 mg/kg i.v. slow perfusion, read-out: Diminution in consumption of O2
[2] = 2.3 mg/kg i.v. slow perfusion, read-out: Diminution in the cardiac effort (IK)
[3] = 2.5 mg/kg i.v. slow perfusion, read-out: Diminution in consumption of O2
[4] = 2.5 mg/kg i.v. slow perfusion, read-out: Diminution in the cardiac effort (IK)
[5] = 0.625 mg/kg i.v. slow perfusion

COc1cc(/C=C/C(=O)N2CCN(CC(O)COc3cc(OC)c(OC)c(OC)c3C(C)=O)CC2)cc(OC)c1OC (centres unmarked) [760 781]
Diminution in consumption of O2: in time (anaesthetized dog; 2.4 mg/kg i.v. slow perfusion): 90 min
Diminution in the cardiac effort (IK): in time (anaesthetized dog; 2.4 mg/kg i.v. slow perfusion): 45 min
inhibition in vivo at 2.4 mg/kg (anaesthetized dog; 2.4 mg/kg i.v. slow perfusion, read-out: Diminution in consumption of O2): 70%
inhibition in vivo at 2.4 mg/kg (anaesthetized dog; 2.4 mg/kg i.v. slow perfusion, read-out: Diminution in the cardiac effort (IK)): 15%
mortality (in vivo; 377 mg/kg i.v.): 0%

COc1cc(/C=C/C(=O)N2CCN(CC(O)COc3cccc(C#N)c3)CC2)cc(OC)c1OC (centres unmarked) [760 784]
Diminution in consumption of O2: in time (anaesthetized dog; 2.3 mg/kg i.v. slow perfusion): 30 min
Diminution in the cardiac effort (IK): in time (anaesthetized dog; 2.3 mg/kg i.v. slow perfusion): 30 min
inhibition in vivo at 2.3 mg/kg (anaesthetized dog; [1]): 44%
inhibition in vivo at 2.3 mg/kg (anaesthetized dog; [2]): 12%
LD50 (in vivo): 372 mg/kg

COc1cc(/C=C/C(=O)N2CCN(CC(O)COc3ccc(C)c4c3OCCO4)CC2)cc(OC)c1OC (centres unmarked) [760 847]
Diminution in consumption of O2: in time (anaesthetized dog; 2.5 mg/kg i.v. slow perfusion): 60 min
inhibition in vivo at 2.5 mg/kg (anaesthetized dog; [3]): 47%
inhibition in vivo at 2.5 mg/kg (anaesthetized dog; [4]): 14%
mortality (in vivo; 169 mg/kg i.v.): 20%

CCCC(=O)c1ccc(OCC(O)CN2CCN(C(=O)/C=C/c3cc(OC)c(OC)c(OC)c3)CC2)c2c1OCCO2 (centres unmarked) [760 866]
Diminution in consumption of O2: in time (anaesthetized dog; 0.6 mg/kg i.v. slow perfusion): 30 min
Diminution in the cardiac effort (IK): in time (anaesthetized dog; 0.6 mg/kg i.v. slow perfusion): 30 min
inhibition in vivo at 0.6 mg/kg (anaesthetized dog; 0.6 mg/kg i.v. slow perfusion, read-out: Diminution in consumption of O2): 54%
inhibition in vivo at 0.6 mg/kg (anaesthetized dog; 0.6 mg/kg i.v. slow perfusion, read-out: Diminution in the cardiac effort (IK)): 20%
mortality (in vivo; 360 mg/kg i.v.): 30%

COc1cc(/C=C/C(=O)N2CCN(CC(O)COc3ccc(NC(C)=O)c4c3OCCO4)CC2)cc(OC)c1OC (centres unmarked) [760 868]
Diminution in consumption of O2: in time (anaesthetized dog; 0.12 mg/kg i.v. slow perfusion): 30 min
Diminution in the cardiac effort (IK): in time (anaesthetized dog; 0.12 mg/kg i.v. slow perfusion): 30 min
inhibition in vivo at 0.12 mg/kg (anaesthetized dog; 0.12 mg/kg i.v. slow perfusion, read-out: Diminution in consumption of O2): 33%
inhibition in vivo at 0.12 mg/kg (anaesthetized dog; 0.12 mg/kg i.v. slow perfusion, read-out: Diminution in the cardiac effort (IK)): 18%
mortality (in vivo; 215 mg/kg i.v.): 40%

CCCC(=O)Nc1ccc(OCC(O)CN2CCN(C(=O)/C=C/c3cc(OC)c(OC)c(OC)c3)CC2)cc1 (centres unmarked) [760 892]
Diminution in consumption of O2: in time (anaesthetized dog; 2.5 mg/kg i.v. slow perfusion): 60 min
Diminution in the cardiac effort (IK): in time (anaesthetized dog; 2.5 mg/kg i.v. slow perfusion): 45 min
inhibition in vivo at 2.5 mg/kg (anaesthetized dog; [3]): 74%
inhibition in vivo at 2.5 mg/kg (anaesthetized dog; [4]): 22%
mortality (in vivo; 400 mg/kg i.v.): 40%

COc1cc(/C=C/C(=O)N2CCN(CCCOc3ccc(C(C)=O)c4c3OCCO4)CC2)cc(OC)c1OC [760 939, 1-[3-(4-acetyl-2,3-ethylenedioxy)phenoxy]-propyl-4-(3,4,5-trimethoxycinnamoyl)piperazine]
Diminution in consumption of O2: in time (anaesthetized dog; 1.25 mg/kg i.v. slow perfusion): 30 min
Diminution in the cardiac effort (IK): in time (anaesthetized dog; 1.25 mg/kg i.v. slow perfusion): 23 min
inhibition in vivo at 1.25 mg/kg (anaesthetized dog; 1.25 mg/kg i.v. slow perfusion, read-out: Diminution in consumption of O2): 27%
inhibition in vivo at 1.25 mg/kg (anaesthetized dog; 1.25 mg/kg i.v. slow perfusion, read-out: Diminution in the cardiac effort (IK)): 11%
mortality (in vivo; 400 mg/kg i.v.): 20%

COc1cc(/C=C/C(=O)N2CCN(CC(O)COc3cccc4c3CCCC4=O)CC2)cc(OC)c1OC (centres unmarked) [760 986]
Diminution in consumption of O2: in time (anaesthetized dog; 2.5 mg/kg i.v. slow perfusion): 60 min
Diminution in the cardiac effort (IK): in time (anaesthetized dog; 2.5 mg/kg i.v. slow perfusion): 60 min
inhibition in vivo at 2.5 mg/kg (anaesthetized dog; [3]): 61%
inhibition in vivo at 2.5 mg/kg (anaesthetized dog; [4]): 27%
LD50 (in vivo): 218 mg/kg

CNC(=O)Nc1ccc(OCC(O)CN2CCN(C(=O)/C=C/c3cc(OC)c(OC)c(OC)c3)CC2)cc1 (centres unmarked) [770 056]
Diminution in consumption of O2: in time (anaesthetized dog; [5]): 15 min
Diminution in the cardiac effort (IK): in time (anaesthetized dog; [5]): 15 min
inhibition in vivo at 0.625 mg/kg (anaesthetized dog; 0.625 mg/kg i.v. slow perfusion, read-out: Diminution in consumption of O2): 49%
inhibition in vivo at 0.625 mg/kg (anaesthetized dog; 0.625 mg/kg i.v. slow perfusion, read-out: Diminution in the cardiac effort (IK)): 22%
LD50 (in vivo): 160 mg/kg

COc1cc(/C=C/C(=O)N2CCN(CC(O)COc3ccc(C(N)=O)cc3)CC2)cc(OC)c1OC (centres unmarked) [770 058]
Diminution in consumption of O2: in time (anaesthetized dog; 2.5 mg/kg i.v. slow perfusion): 30 min
Diminution in the cardiac effort (IK): in time (anaesthetized dog; 2.5 mg/kg i.v. slow perfusion): 30 min
inhibition in vivo at 2.5 mg/kg (anaesthetized dog; [3]): 36%
inhibition in vivo at 2.5 mg/kg (anaesthetized dog; [4]): 35%
LD50 (in vivo): 315 mg/kg

COc1cc(/C=C/C(=O)N2CCN(CC(O)CSc3ccc(C)cc3)CC2)cc(OC)c1OC (centres unmarked) [770 059]
Diminution in consumption of O2: in time (anaesthetized dog; 5 mg/kg i.v. slow perfusion): 15 min
Diminution in the cardiac effort (IK): in time (anaesthetized dog; 5 mg/kg i.v. slow perfusion): 15 min
inhibition in vivo at 5 mg/kg (anaesthetized dog; 5 mg/kg i.v. slow perfusion, read-out: Diminution in consumption of O2): 64%
inhibition in vivo at 5 mg/kg (anaesthetized dog; 5 mg/kg i.v. slow perfusion, read-out: Diminution in the cardiac effort (IK)): 12%
LD50 (in vivo): 91 mg/kg

COc1cc(/C=C/C(=O)N2CCN(CC(O)CSc3ccccc3)CC2)cc(OC)c1OC (centres unmarked) [770 060]
Diminution in consumption of O2: in time (anaesthetized dog; 2.3 mg/kg i.v. slow perfusion): 23 min
Diminution in the cardiac effort (IK): in time (anaesthetized dog; 2.3 mg/kg i.v. slow perfusion): 30 min
inhibition in vivo at 2.3 mg/kg (anaesthetized dog; [1]): 58%
inhibition in vivo at 2.3 mg/kg (anaesthetized dog; [2]): 35%
LD50 (in vivo): 195 mg/kg
